Test results published in the Biogen ADME set (Fang et al. 2023).
Values after ≈ are worked out from the molar mass of the structure shown.

Details: for aqueous solubility: pH 6.8

| MDR1-MDCK efflux ratio | intrinsic clearance, human liver microsomes [mL/min/kg] | intrinsic clearance, rat liver microsomes [mL/min/kg] | aqueous solubility [µg/mL] | fraction unbound, human plasma | fraction unbound, rat plasma | Structure (SMILES) |
| --- | --- | --- | --- | --- | --- | --- |
| 0.425 | ≤ 4.74 | ≤ 10.7 | – | – | – | CN(C)S(=O)(=O)CCCN1CCC(CCC(N)=O)CC1 |
| 2.52 | 4.89 | ≤ 10.7 | 51.2 (≈ 174 µM) | – | – | Cc1nn(-c2ccccn2)c2nc(C3CC3)cc(C(=O)O)c12 |
| 33.1 | 149 | 572 | – | 0.0395 | 0.119 | COCC(=O)N1CCC(Cc2ccccc2-c2cccc(F)c2)(C(=O)NC(C)C)CC1 |
| – | 45 | 184 | 2.33 (≈ 4.44 µM) | – | – | CCN(C(=O)CO)[C@H]1CN(/C(=N\C#N)Nc2cccc(OC(F)F)c2)N=C1c1ccc(Cl)c(Cl)c1 |
| 21.2 | 6.43 | 149 | – | – | – | Cc1noc2ncnc(N3CCCN(C(=O)C4CC4)CC3)c12 |
| – | 322 | 754 | – | – | – | Nc1ccccc1-c1nc(C2CC2)no1 |
| – | – | – | 0.15 (≈ 0.442 µM) | – | – | CCCn1c(=O)c2c(nc3n2CCN3c2ccc(C)cc2)n(C)c1=O |
| 1.05 | ≤ 4.74 | ≤ 10.7 | 50.5 (≈ 217 µM) | – | – | CNC(=O)CCc1nc(-c2ccccn2)no1 |
| – | – | – | 0.2 (≈ 0.533 µM) | – | – | Cc1cc(Nc2cc(N3CCN(C)CC3)nc(/C=C/c3ccccc3)n2)n[nH]1 |
| 30.5 | ≤ 4.74 | 98.3 | 35 (≈ 122 µM) | – | – | Cc1cccc(-n2cnnc2CCCN2CCOCC2)c1 |
| 1.68 | 37.6 | 394 | 51.6 (≈ 156 µM) | – | – | CCOC(=O)N1CCN(C(=O)Nc2cccc3c2CCCC3)CC1 |
| 22.2 | 8.38 | 57.2 | 59.4 (≈ 216 µM) | – | – | Cc1nccn1-c1ccc(F)cc1CNC(=O)C(C)C |
| 0.582 | 77.3 | 3110 | – | – | – | Brc1nnc(N2CCC(OC3CCCC3)CC2)s1 |
| 0.806 | 11.4 | 270 | – | – | – | COc1ccc(=O)n(Cc2noc3c2CCCC3)n1 |
| 3.72 | ≤ 4.74 | ≤ 10.7 | 38.2 (≈ 165 µM) | – | – | CC(C)c1nc(NCc2cccnc2)n(C)n1 |
| – | 31 | 2980 | 43 (≈ 136 µM) | – | – | O=C(COc1ccc2oc3c(c2c1)CCCC3)N1CCOCC1 |
| 0.685 | ≤ 4.74 | ≤ 10.7 | – | – | – | Cc1ccc(CNc2ncnn2C)nc1 |
| 0.689 | 52 | 1650 | – | – | – | O=C(Nc1nnc(SCc2ccc(F)cc2)s1)C1CCC1 |
| 0.946 | 55.1 | 579 | 19.9 (≈ 72.1 µM) | – | – | Cc1ccc(-n2ccnc2-c2ccoc2)c2cccnc12 |
| 1.09 | 15 | 430 | 32.6 (≈ 102 µM) | – | – | Cc1nc(CN(C)C(=O)C2c3ccccc3-c3ccccc32)no1 |

| MDR1-MDCK efflux ratio | intrinsic clearance, human liver microsomes [mL/min/kg] | intrinsic clearance, rat liver microsomes [mL/min/kg] | aqueous solubility [µg/mL] | fraction unbound, human plasma | fraction unbound, rat plasma | Structure (SMILES) |
| --- | --- | --- | --- | --- | --- | --- |
| 7.25 | 25 | 238 | 10.8 (≈ 29.2 µM) | 0.0146 | 0.00229 | CC#CC(=O)N[C@H]1CCCN(c2c(F)cc(C(N)=O)c3[nH]c(C)c(C)c23)C1 |
| 0.87 | ≤ 4.74 | ≤ 10.7 | 28 (≈ 128 µM) | – | – | NC(=O)Cn1cc(-c2ccc(F)cc2)cn1 |
| – | – | – | 1.18 (≈ 3.91 µM) | – | – | O=C(CCc1cccs1)Nc1ccc(N2CCCC2)cn1 |
| 0.468 | 78.5 | 90.1 | 6.1 (≈ 19.4 µM) | – | – | O=C(Nc1ccc(F)cc1F)N1CCn2c1nc1ccccc12 |
| – | 91.5 | 416 | – | – | – | N#Cc1cccc(NCc2ccc(-c3cccnc3)o2)c1 |
| 15.3 | ≤ 4.74 | 534 | – | – | – | CCCn1cnnc1CN(C)Cc1cc(C(C)C)on1 |
| 9.09 | 7.73 | – | – | 0.586 | – | O=C(Nc1ccc(CN2CCCCC2)cc1)c1ccnc2[nH]cnc12 |
| 0.671 | 148 | 1100 | 19.4 (≈ 49.1 µM) | – | – | O=C(CN1CCCN(c2ccc(C(F)(F)F)cn2)CC1)Nc1ccccc1F |
| 14.5 | 26.7 | 187 | 6.53 (≈ 19.9 µM) | – | – | O=C1CCCc2c1[nH]c1cc(-n3ccnc3-c3ccncc3)ccc21 |
| 0.489 | 59.7 | 286 | 1.74 (≈ 6.23 µM) | – | – | Cc1cc(C)n(-c2cc(Nc3ccccc3C)ncn2)n1 |
| 2.14 | ≤ 4.74 | 65.6 | 45.1 (≈ 170 µM) | – | – | N#CC1(NC(=O)CN2CCOCC2)CCCCCC1 |
| 52 | 198 | 734 | – | – | – | Cc1cc(C(F)(F)F)nc(CCNC(=O)N(C)Cc2ccncc2C)n1 |
| 0.564 | 20.5 | 1040 | – | – | – | OC1(Cc2nc(-c3ccsc3)no2)CCCCC1 |
| 1.25 | – | – | – | 0.00764 | 0.0171 | COc1ccc(OC[C@@H]2c3cc(OC)c(OC)cc3CCN2C(=O)c2cccc(Cl)c2)cc1 |
| 0.466 | 13.7 | 135 | 14.2 (≈ 36.5 µM) | – | – | COCCOCc1ccc(-c2cc3onc(-c4ccccc4)c3c(=O)n2C)cc1 |
| 6.11 | 26.4 | 131 | 56.2 (≈ 181 µM) | – | – | CN(CC(=O)Nc1cccc(F)c1)C(=O)c1cccc(C#N)c1 |
| 18 | ≤ 4.74 | 11.1 | 68.5 (≈ 227 µM) | – | – | CCOc1ccc(CC(=O)NCCn2cccnc2=O)cc1 |
| 81.5 | 30.6 | 217 | 63.4 (≈ 180 µM) | – | – | CCC1(CC)NC(=O)N(CC(=O)N2CCOCC3(CCCC3)C2)C1=O |
| 18.4 | ≤ 4.74 | 1140 | – | – | – | C[C@@H](c1ccccc1)N(C)C(=O)NCCN(C)CCO |
| 0.523 | ≤ 4.74 | 25 | 22.7 (≈ 112 µM) | – | – | CCC1(O)CN(c2ncccc2C#N)C1 |

| MDR1-MDCK efflux ratio | intrinsic clearance, human liver microsomes [mL/min/kg] | intrinsic clearance, rat liver microsomes [mL/min/kg] | aqueous solubility [µg/mL] | fraction unbound, human plasma | fraction unbound, rat plasma | Structure (SMILES) |
| --- | --- | --- | --- | --- | --- | --- |
| 4 | 79.7 | 545 | 33.5 (≈ 95.2 µM) | – | – | O=C(NCC#CCN1CCc2ccccc2C1)NCc1ccc(F)cc1 |
| – | 99.4 | 2230 | 13.5 (≈ 42.5 µM) | – | – | CCCc1cc(-c2nn3c(C4CCCC4)nnc3s2)n(C)n1 |
| 1.06 | 11.1 | 399 | 47.4 (≈ 165 µM) | – | – | Cc1ccc(F)cc1CNc1cc(C(=O)N(C)C)ccn1 |
| 0.708 | 1150 | 2000 | – | – | – | COC(=O)c1cccc2c1CCCN2C(=O)c1ccc(F)cc1F |
| – | 226 | 2310 | – | – | – | CCCCNc1nc2c(cc1C#N)CCC2 |
| 2.8 | 85.2 | 44.9 | – | – | – | COCC(=O)Nc1ccc(C)c(NC(=O)[C@H](OC)c2ccccc2)c1 |
| 1.62 | ≤ 4.74 | ≤ 10.7 | 37.2 (≈ 147 µM) | – | – | O=C(O)c1c2ccccc2nn1Cc1ccccc1 |
| – | – | – | 42.5 (≈ 145 µM) | – | – | N#C/C(=C\c1ccc(O)c(O)c1)C(=O)NCc1ccccc1 |
| – | ≤ 4.74 | 31.2 | 21.9 (≈ 109 µM) | – | – | Cc1cc(Oc2cnccn2)ccc1N |
| 1.16 | 43 | 2030 | – | – | – | CN1CCC(Cc2cccc(-c3nccs3)n2)C1 (stereo not drawn) |
| 1.81 | 21.5 | 247 | – | – | – | CS(=O)(=O)NC[C@H]1CC[C@H](Nc2nc3c(s2)CCSc2ccccc2-3)CC1 |
| 1.27 | ≤ 4.74 | 100 | – | – | – | CS(=O)(=O)Nc1ccccc1-c1ccncc1 |
| 0.527 | 8.3 | 56.2 | – | – | – | CC(=O)c1ccc2c(c1)CCN(CCC1OCCO1)CC2 |
| 2.34 | ≤ 4.74 | 47.2 | – | – | – | Cc1cnn(CC(=O)NCCCn2cc(Cl)cn2)c1 |
| 35.5 | 34.8 | 874 | – | – | – | CN(C)C1(CNC(=O)N2CCC=C(c3ccccc3)C2)CCOCC1 |
| 50.2 | 41.7 | 519 | 2.7 (≈ 5.52 µM) | 0.00845 | 0.00935 | CC#CC(=O)N1CC[C@@H](n2cc(-c3ccc(Oc4c(F)cccc4F)cc3)c3c(N)n[nH]c(=O)c32)C1 |
| 0.574 | – | – | 0.33 (≈ 1.07 µM) | – | – | O=C(Nc1ccc(Cl)cn1)C1(c2cccc(Cl)c2)CC1 |
| 0.547 | 25.3 | 191 | 15.4 (≈ 49.4 µM) | – | – | COc1ccc(C(=O)Nc2ccc3oc(C)nc3c2)c(OC)c1 |
